Data taken from the NIST ThermoML archive (doi:10.1021/acs.jced.8b00011).
“And” between values parts separate entries of the source, which are not always exact repeats. Equal entries are not always repeated.

Details: Liquid; for mass density: Vibrating tube method; for electrical conductivity: electrochemical impedance spectroscopy

CCCCC[P+](CC)(CC)CC.O=S(=O)([N-]S(=O)(=O)C(F)(F)F)C(F)(F)F
Details	electrical conductivity	mass density
323.15 K, 5000 kPa	–	1286.05 kg/m3
323.15 K, 10000 kPa	–	1289.93 kg/m3
323.15 K, 15000 kPa	–	1293.65 kg/m3
323.15 K, 20000 kPa	–	1297.31 kg/m3
323.15 K, 25000 kPa	–	1300.84 kg/m3
323.15 K, 30000 kPa	–	1304.31 kg/m3
323.15 K, 35000 kPa	–	1307.72 kg/m3
323.15 K, 40000 kPa	–	1311.03 kg/m3
323.15 K, 45000 kPa	–	1314.23 kg/m3
323.15 K, 50000 kPa	–	1317.43 kg/m3
328.15 K, 101.33 kPa	0.515 S/m and 0.516 S/m	–
333.15 K, 100 kPa	–	1273.44 kg/m3 [middle of 6 runs]
333.15 K, 101.33 kPa	0.598 S/m and 0.6 S/m	–
333.15 K, 1000 kPa	–	1274.41 kg/m3
333.15 K, 5000 kPa	–	1277.68 kg/m3
333.15 K, 10000 kPa	–	1281.66 kg/m3
333.15 K, 15000 kPa	–	1285.53 kg/m3
333.15 K, 20000 kPa	–	1289.3 kg/m3
333.15 K, 25000 kPa	–	1292.91 kg/m3
333.15 K, 30000 kPa	–	1296.47 kg/m3
333.15 K, 35000 kPa	–	1299.98 kg/m3
333.15 K, 40000 kPa	–	1303.38 kg/m3
333.15 K, 45000 kPa	–	1306.68 kg/m3
333.15 K, 50000 kPa	–	1309.96 kg/m3
338.15 K, 101.33 kPa	0.687 S/m and 0.689 S/m	–
343.15 K, 100 kPa	–	1264.95 kg/m3 [middle of 6 runs]
343.15 K, 101.33 kPa	0.784 S/m and 0.786 S/m	–
343.15 K, 1000 kPa	–	1265.61 kg/m3
343.15 K, 5000 kPa	–	1269.03 kg/m3
343.15 K, 10000 kPa	–	1273.12 kg/m3
343.15 K, 15000 kPa	–	1277.12 kg/m3
343.15 K, 20000 kPa	–	1280.98 kg/m3
343.15 K, 25000 kPa	–	1284.76 kg/m3
343.15 K, 30000 kPa	–	1288.39 kg/m3
343.15 K, 35000 kPa	–	1291.99 kg/m3
343.15 K, 40000 kPa	–	1295.5 kg/m3

Details	electrical conductivity [S/m]	viscosity
323.15 K, 5900 kPa, Frequency=0 MHz	0.411	–
323.15 K, 10600 kPa, Falling or rolling sphere viscometry	–	33.85 mPa·s
323.15 K, 10600 kPa, Frequency=0 MHz	0.393	–
323.15 K, 20500 kPa, Falling or rolling sphere viscometry	–	37.97 mPa·s
323.15 K, 30600 kPa, Falling or rolling sphere viscometry	–	42.53 mPa·s
323.15 K, 40300 kPa, Falling or rolling sphere viscometry	–	47.23 mPa·s
323.15 K, 50500 kPa, Falling or rolling sphere viscometry	–	52.72 mPa·s
323.15 K, 60300 kPa, Falling or rolling sphere viscometry	–	58.3 mPa·s
323.15 K, 77000 kPa, Frequency=0 MHz	0.211	–
323.15 K, 80500 kPa, Falling or rolling sphere viscometry	–	71.43 mPa·s
323.15 K, 100200 kPa, Falling or rolling sphere viscometry	–	86.46 mPa·s
323.15 K, 120600 kPa, Falling or rolling sphere viscometry	–	104.7 mPa·s
323.15 K, 126900 kPa, Frequency=0 MHz	0.138	–
323.15 K, 140600 kPa, Falling or rolling sphere viscometry	–	125.7 mPa·s
323.15 K, 160500 kPa, Falling or rolling sphere viscometry	–	149.6 mPa·s
323.15 K, 180500 kPa, Falling or rolling sphere viscometry	–	178.5 mPa·s
323.15 K, 200300 kPa, Falling or rolling sphere viscometry	–	210.1 mPa·s
323.15 K, 201300 kPa, Frequency=0 MHz	0.0751	–
323.15 K, 210900 kPa, Falling or rolling sphere viscometry	–	232.2 mPa·s
323.15 K, 225200 kPa, Frequency=0 MHz	0.0625	–
323.15 K, 250100 kPa, Frequency=0 MHz	0.0517	–
323.16 K, 14400 kPa, Frequency=0 MHz	0.378	–
323.16 K, 20500 kPa, Frequency=0 MHz	0.356	–
323.16 K, 25800 kPa, Frequency=0 MHz	0.338	–
323.16 K, 30200 kPa, Frequency=0 MHz	0.324	–
323.16 K, 40000 kPa, Frequency=0 MHz	0.295	–
323.16 K, 49900 kPa, Frequency=0 MHz	0.269	–
333.15 K, 100 kPa, Concentric cylinders viscometry	–	21.51 mPa·s
333.15 K, 100 kPa, Falling or rolling sphere viscometry	–	21.43 mPa·s [middle of 4 runs]
333.15 K, 700 kPa, Falling or rolling sphere viscometry	–	21.55 mPa·s
333.15 K, 10400 kPa, Falling or rolling sphere viscometry	–	23.8 mPa·s
333.15 K, 10600 kPa, Falling or rolling sphere viscometry	–	24.11 mPa·s
333.15 K, 19700 kPa, Falling or rolling sphere viscometry	–	26.33 mPa·s
333.15 K, 20300 kPa, Falling or rolling sphere viscometry	–	26.81 mPa·s
333.15 K, 30600 kPa, Falling or rolling sphere viscometry	–	29.93 mPa·s and 29.71 mPa·s
333.15 K, 40300 kPa, Falling or rolling sphere viscometry	–	32.65 mPa·s
333.15 K, 40600 kPa, Falling or rolling sphere viscometry	–	33.21 mPa·s
333.15 K, 50400 kPa, Falling or rolling sphere viscometry	–	36.22 mPa·s
333.15 K, 50600 kPa, Falling or rolling sphere viscometry	–	36.73 mPa·s
333.15 K, 60500 kPa, Falling or rolling sphere viscometry	–	40.1 mPa·s
333.15 K, 60600 kPa, Falling or rolling sphere viscometry	–	40.52 mPa·s
333.15 K, 80200 kPa, Falling or rolling sphere viscometry	–	48.82 mPa·s
333.15 K, 99600 kPa, Falling or rolling sphere viscometry	–	58.36 mPa·s
343.15 K, 100 kPa, Concentric cylinders viscometry	–	15.99 mPa·s
343.15 K, 100 kPa, Falling or rolling sphere viscometry	–	15.89 mPa·s and 15.97 mPa·s
